Square brackets hold non-standard residues; d marks the D form. Peptide text beside a SMILES is read from it. Nva = CCC[C@H](N)C(=O)O
Legend:
[1] = target: T1, adiponectin receptor ADIPOR1 (Homo sapiens, UniProt Q96A54); test: Kd (uM)
T1 construct: Flag tag (N); made in house; host or cells: SF9 insect cells (baculovirus, pFASTbac1)
Excerpt: Table printed on a drawing sheet, FIG. 1
Head of the field: Kd (uM)
Where the first naming reader finds the target: description_of_the_figure: dissociation constant values of synthetic peptides (3 peptides from 3rd round, 4 peptides from 4th round) from the adiponectin receptor ADIPOR1

[2] = target: T2, adiponectin receptor 1 (ADIPOR1) (Homo sapiens, UniProt Q96A54); test: Surface plasmon resonance (SPR) binding of peptide to immobilized recombinant ADIPOR1; settings: ADIPOR1 amine-coupled to CM5 chip, running buffer pH 7.4, read-out: dissociation constant (Kd) from ADIPOR1
T2 construct: Flag tag (N); made in house; host or cells: SF9 insect cells (baculovirus, pFASTbac1)
T2 sequence (Q96A54 89-375): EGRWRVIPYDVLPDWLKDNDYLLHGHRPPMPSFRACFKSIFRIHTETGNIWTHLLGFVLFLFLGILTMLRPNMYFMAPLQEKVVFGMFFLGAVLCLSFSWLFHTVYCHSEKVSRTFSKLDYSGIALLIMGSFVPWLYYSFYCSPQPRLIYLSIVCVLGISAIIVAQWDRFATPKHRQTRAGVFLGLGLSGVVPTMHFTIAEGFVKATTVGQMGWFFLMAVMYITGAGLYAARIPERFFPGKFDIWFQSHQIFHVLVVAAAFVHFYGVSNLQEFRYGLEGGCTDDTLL
Excerpt: The ADIPOR1 protein sequence used was the same as that used for the ADIPOR1 structure analysis, in which 88 amino acids at the N-terminal have been removed. The gene capable of producing the protein sequence was synthesized by codon optimization (IDT). At the time, a BamHI restriction enzyme site, a Flag tag and a TEV protease recognition sequence (ENLYFQG; SEQ ID NO: 11) were inserted at the 5′ end and an EcoRI restriction enzyme site was inserted at the 3′ end in order to facilitate cloning and purify the expressed protein. The obtained gene was inserted into the pFASTbac1 vector required for baculovirus production to perform cloning. The cloned vector was transfected into DH10 bac (Invitrogen) to obtain a bacmid comprising the ADIPOR1 gene through recombination. In order to produce baculovirus, the obtained bacmid was transfected into SF9 cells (5×10^4 cells) using Transfectine (Qiagen), and the baculovirus secreted in a medium was collected after 5 days. Then, a large amount of baculovirus was produced through amplification. The obtained baculovirus was inoculated into SF9 cells (5×10^6 cells/ml) cultured in a 1 L SFM900 medium, and protein was expressed at a temperature of 27° C. for 3 days. The SF9 cells expressing recombinant ADIPOR1 were obtained through centrifugation. The obtained cell pellets were aliquoted and stored at −80° C., and used in protein purification as needed to minimize the disadvantages of membrane proteins, which have the possibility of inactivation due to storage after purification. The ADIPOR1, which is a membrane protein expressed on a cell membrane, was solubilized using a detergent (1% DDM) for purification. The dissolved sample was reacted with anti-Flag antibody bead (Sigma) for 1 hour in ice. Then, ADIPOR1 bound to the anti-Flag antibody bead was eluted with Flag peptide. The primarily purified ADIPOR1 was subjected to size exclusion chromatography (Supderdex200, GE healthcare) to obtain only monomeric, proteins. […]
In order to analyze the binding force between peptide and ADIPOR1, a purified recombinant ADIPOR1 (A88) was bound to a CM5 chip with 3000 RU or higher through amine coupling. […] The affinity value was calculated using the affinity fitting or kinetics fitting method. […] The peptide concentrations were calculated by measuring the […] and A280 absorbance of each peptide.
With reference to FIGS. 3 and 4, surface plasmon resonance (SPR) experiments were performed in the present invention to measure the dissociation constant between the agonist peptide and the adiponectin receptor, particularly adiponectin receptor 1 (ADIPOR1). First, an expressed and purified adiponectin receptor ADIPOR1 was immobilized and its dissociation constant from candidate peptides was measured over a total of 4 rounds.

[3] = system: AMPK phosphorylation in HepG2 cell line; test: Western blotting of AMPK phosphorylation in HepG2 cell line; type: cell-based; settings: HepG2, 5 h starvation, 30 min treatment; tested at 20, 4 and 0.8 uM
Procedure: (§1) C2C12 and HepG2 cells were purchased from ATCC. Before use, they were cultured in a DMEM (Hyclone) medium supplemented with 10% FBS (Hyclone) and 1% penicillin/streptomycin in an incubator at 37° C. in a 5% CO2 environment.
(§2) Based on the prior finding, after optimization of the number of the cells to be used for experiment, HepG2 was starved for 5 hours, recovered, and treated with peptide for 30 minutes, and C2C12 was starved for 24 hours and treated with peptide for 10 minutes. The treated cell samples were washed once with cold PBS and lysed for 15 minutes with a RiPA buffer containing a protease inhibitor and a phosphatase inhibitor. After 15 minutes, centrifugation was carried out at 14000 rpm for 5 minutes to collect only proteins. After quantification, 4× sample buffer and 2-ME were added to prepare a sample for western blotting. The western blotting was performed using a conventional western blotting technique. The antibodies of AMPK, p-AMPK, p-AKT, p-ACC and GAPDH were diluted to 1:1000 or 1:2000 depending on the type thereof and imaging was performed with a LAS-4000 instrument.
HepG2 cell line was plated on a 12-well plate at a concentration of 8*10^5 cells/well on the day before the experiment. […]

[4] = system: AMPK phosphorylation in C2C12 cell line; test: Western blotting of AMPK phosphorylation in differentiated C2C12 myotubes; type: cell-based; settings: 10 min treatment, tested at 20, 4 and 0.8 uM
Procedure: as §1
C2C12 cells were plated in 12 wells. […] Then, the medium was replaced with a differentiation medium in which DMEM is supplemented with 2.5% horse serum and 1% penicillin/streptomycin. Thereafter, differentiation was performed for 5-7 days, replacing the medium with a new differentiation medium every day. The thus-obtained product was used for experiments.
as §2, with “The antibodies of AMPK, p-AMPK, p-AKT, p-ACC and GAPDH were diluted to 1:1000 or 1:2000 depending on the type thereof and imaging was performed with a LAS-4000 instrument.” left out

T1 sequence (Q96A54 whole entry, looked up): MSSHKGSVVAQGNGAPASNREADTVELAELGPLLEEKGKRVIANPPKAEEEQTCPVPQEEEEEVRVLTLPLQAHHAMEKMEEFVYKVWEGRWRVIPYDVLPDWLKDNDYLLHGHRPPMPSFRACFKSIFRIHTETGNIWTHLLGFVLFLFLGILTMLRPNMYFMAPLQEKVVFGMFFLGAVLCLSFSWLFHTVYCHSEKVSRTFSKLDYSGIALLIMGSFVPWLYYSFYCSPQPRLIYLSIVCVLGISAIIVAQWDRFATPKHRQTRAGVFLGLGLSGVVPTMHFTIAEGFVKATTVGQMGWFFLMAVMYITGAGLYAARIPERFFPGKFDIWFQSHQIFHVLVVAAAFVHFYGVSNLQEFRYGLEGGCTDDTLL

Compound	Kd [1] [µM]	Kd [2] [µM]	other results
CC[C@H](C)[C@H](NC(=O)[C@H](CC(N)=O)NC(=O)[C@@H]1CCCN1C(=O)[C@H](Cc1c[nH]cn1)NC(=O)[C@H](Cc1ccc(O)cc1)NC(=O)[C@H](C)NC(=O)[C@H](Cc1ccccc1)NC(=O)[C@H](Cc1ccc(O)cc1)NC(=O)[C@@H](N)Cc1ccc(O)cc1)C(=O)N1CCC[C@H]1C(=O)NCC(=O)N[C@@H](CC(C)C)C(=O)N[C@@H](Cc1ccc(O)cc1)C(=O)N[C@@H](Cc1ccc(O)cc1)C(=O)N[C@@H](Cc1ccccc1)C(=O)O [3-1, YYFAYHPNIPGLYYF (SEQ ID NO: 1 where Xaa1 and Xaa13 each is tyrosine)] (H-YYFAYHPNIPGLYYF-OH; N-terminus and C-terminus assumed)	16		
CC[C@H](C)[C@H](NC(=O)[C@H](CC(N)=O)NC(=O)[C@@H]1CCCN1C(=O)[C@H](Cc1c[nH]cn1)NC(=O)[C@H](Cc1ccc(O)cc1)NC(=O)[C@H](C)NC(=O)[C@H](Cc1ccccc1)NC(=O)[C@H](Cc1ccc(O)cc1)NC(=O)[C@@H](N)Cc1ccc(O)cc1)C(=O)N1CCC[C@H]1C(=O)NCC(=O)N[C@@H](CC(C)C)C(=O)N[C@@H](Cc1ccc(O)cc1)C(=O)N[C@@H](Cc1ccc(O)cc1)C(=O)N[C@@H](Cc1ccccc1)C(=O)O [peptide 3-1, Tyr-Tyr-Phe-Ala-Tyr-His-Pro-Asn-Ile-Pro-Gly-Leu-Tyr-Tyr-Phe] (H-YYFAYHPNIPGLYYF-OH)		≤ 16	

More lines, main results first:

Kd [1] [µM]	Kd [2] [µM]	Compound	other results
	2 to 4.3	CC[C@H](C)[C@H](NC(=O)[C@H](CC(N)=O)NC(=O)[C@@H]1CCCN1C(=O)[C@H](Cc1c[nH]cn1)NC(=O)[C@H](Cc1ccc(O)cc1)NC(=O)[C@H](C)NC(=O)[C@H](Cc1ccccc1)NC(=O)[C@H](Cc1ccc(O)cc1)NC(=O)[C@@H](N)Cc1ccccc1)C(=O)N1CCC[C@H]1C(=O)NCC(=O)N[C@@H](CC(C)C)C(=O)N[C@@H](Cc1ccccc1)C(=O)N[C@@H](Cc1ccc(O)cc1)C(=O)N[C@@H](Cc1ccccc1)C(=O)O [peptide 4-4, Phe-Tyr-Phe-Ala-Tyr-His-Pro-Asn-Ile-Pro-Gly-Leu-Phe-Tyr-Phe] (H-FYFAYHPNIPGLFYF-OH)	
	6 to 10	CC[C@H](C)[C@H](NC(=O)[C@H](CC(N)=O)NC(=O)[C@@H]1CCCN1C(=O)[C@H](Cc1c[nH]cn1)NC(=O)[C@H](Cc1ccc(O)cc1)NC(=O)[C@H](C)NC(=O)[C@H](Cc1ccccc1)NC(=O)[C@H](Cc1ccc(O)cc1)NC(=O)[C@@H](N)Cc1c[nH]c2ccccc12)C(=O)N1CCC[C@H]1C(=O)NCC(=O)N[C@@H](CC(C)C)C(=O)N[C@@H](Cc1c[nH]c2ccccc12)C(=O)N[C@@H](Cc1ccc(O)cc1)C(=O)N[C@@H](Cc1ccccc1)C(=O)O [peptide 4-3, Trp-Tyr-Phe-Ala-Tyr-His-Pro-Asn-Ile-Pro-Gly-Leu-Trp-Tyr-Phe] (H-WYFAYHPNIPGLWYF-OH)	
	≥ 100	CCC[C@H](NC(=O)[C@@H]1CCCN1C(=O)[C@@H](NC(=O)[C@H](N)CC(N)=O)[C@@H](C)CC)C(=O)N[C@@H](CC(C)C)C(=O)N[C@@H](Cc1ccc(O)cc1)C(=O)N[C@H](CO)C(=O)N[C@@H](Cc1ccccc1)C(=O)N[C@@H](C)C(=O)N[C@H](CO)C(N)=O [ADP355, H-DAsn-Ile-Pro-Nva-Leu-Tyr-DSer-Phe-Ala-DSer-NH2] (H-[dN]IP[Nva]LY[dS]FA[dS]-NH2)	concentration from which AMPK was phosphorylated [3]: 20 µM; concentration from which AMPK was phosphorylated [4]: 4 µM
24.5		CC[C@H](C)[C@H](NC(=O)[C@H](CC(N)=O)NC(=O)[C@@H]1CCCN1C(=O)[C@H](Cc1c[nH]cn1)NC(=O)[C@H](Cc1ccc(O)cc1)NC(=O)[C@H](C)NC(=O)[C@H](Cc1ccccc1)NC(=O)[C@H](CO)NC(=O)[C@@H](N)Cc1ccc(O)cc1)C(=O)N1CCC[C@H]1C(=O)NCC(=O)N[C@@H](CC(C)C)C(=O)N[C@@H](Cc1ccc(O)cc1)C(=O)N[C@@H](Cc1ccc(O)cc1)C(=O)N[C@@H](Cc1ccccc1)C(=O)O [4-5, YSFAYHPNIPGLYYF (SEQ ID NO: 7)] (H-YSFAYHPNIPGLYYF-OH; N-terminus and C-terminus assumed)	
